The source of these data is patent US4251444A, “Thiazepino-[4,3-b]-isoquinoline-1,5-dione derivatives and precursors” (American Home Products Corporation, priority 1980, dated 1981).

The experiment relates to male spontaneously hypertensive rats. As to the kind of experiment: blood pressure lowering, systolic pressure by Decker Caudal Plethysmograph. It counts as in vivo. Conditions: four hours after administration of a 50 milligram dose; standard experimental rat, oral. The protocol: The compounds tested were administered orally and blood pressure was read prior to and at 1.5, 4 and 24 hours after drug administration.

With `CC(CSC(=O)c1ccccc1)C(=O)N1Cc2ccccc2CC1C(=O)O` (single isomer, unassigned) [Example 4, 2-(3-Benzoylthio-2-methylpropanoyl)-1,2,3,4-tetrahydroisoquinoline-3-carboxylic acid], the “reduction of blood pressure” value worked out at 29 millimeters.
